We go through one molecule from ChEMBL document CHEMBL2375284, “Novel hybrids of natural isochroman-4-one bearing N-substituted isopropanolamine as potential antihypertensive candidates” (Bioorg Med Chem, 2013).

In data set [1] the test system is Rattus norvegicus. In words: Antihypertensive activity in rat spontaneous hypertensive model assessed as systolic arterial blood pressure at 20 mg/kg, po measured at 4 hrs by tail-cuff method (reference value: 172.9 +/- 10.21 mmHg). The format is functional, Artery.
For data set [2], the system named is Rattus norvegicus. Briefly: Antihypertensive activity in rat spontaneous hypertensive model assessed as diastolic arterial blood pressure at 20 mg/kg, po measured at 0.5 hrs by tail-cuff method (reference value: 138.7 +/- 9.2 mmHg). The data set is classed as functional, Artery.
Data set [3] concerns Rattus norvegicus. Briefly: Antihypertensive activity in rat spontaneous hypertensive model assessed as mean arterial blood pressure at 20 mg/kg, po measured at 8 hrs by tail-cuff method (reference value: 155.8 +/- 11.54 mmHg). The format is functional, Artery.
The subject of data set [4] is Rattus norvegicus. In words: Toxicity in rat spontaneous hypertensive model assessed as heart rate at 20 mg/kg, po measured at 1 hr by tail-cuff method (reference value: 403.9 +/- 12.41 bpm). The format is organism-based. The arrangement: dose 20 mg/kg, route oral. As to conditions: in vivo.
Data set [5] has as its system Rattus norvegicus. In words: Antihypertensive activity in rat spontaneous hypertensive model assessed as diastolic arterial blood pressure at 20 mg/kg, po measured at 8 hrs by tail-cuff method (reference value: 135.3 +/- 8.21 mmHg). The format is functional, Artery.
The subject of data set [6] is Rattus norvegicus. Briefly: Antihypertensive activity in rat spontaneous hypertensive model assessed as mean arterial blood pressure at 20 mg/kg, po measured at 1 hr by tail-cuff method (reference value: 158.9 +/- 13.65 mmHg). The format is functional, Artery.
For data set [7], the system named is Rattus norvegicus. Briefly: Antihypertensive activity in rat spontaneous hypertensive model assessed as mean arterial blood pressure at 20 mg/kg, po measured at 4 hrs by tail-cuff method (reference value: 154.4 +/- 20.1 mmHg). The data set is classed as functional, Artery.
Data set [8] deals with Rattus norvegicus. Briefly: Antihypertensive activity in rat spontaneous hypertensive model assessed as systolic arterial blood pressure at 20 mg/kg, po measured at 6 hrs by tail-cuff method (reference value: 176.7 +/- 15.21 mmHg). The data set is classed as functional, Artery.
The test system of data set [9] is Rattus norvegicus. In words: Toxicity in rat spontaneous hypertensive model assessed as heart rate at 20 mg/kg, po measured at 4 hrs by tail-cuff method (reference value: 403.1 +/- 15.92 bpm). The format is organism-based. More on the design: dose 20 mg/kg, route oral. The following applies: in vivo.
In data set [10] the test system is Rattus norvegicus. Briefly: Toxicity in rat spontaneous hypertensive model assessed as heart rate at 20 mg/kg, po measured at 8 hrs by tail-cuff method (reference value: 397.2 +/- 24.87 bpm). The data set is classed as organism-based. More on the design: dose 20 mg/kg, route oral. The following applies: in vivo.
The subject of data set [11] is Rattus norvegicus. Briefly: Antihypertensive activity in rat spontaneous hypertensive model assessed as systolic arterial blood pressure at 20 mg/kg, po measured at 2 hrs by tail-cuff method (reference value: 172.6 +/- 17.3 mmHg). The data set is classed as functional, Artery.
Data set [12] deals with Rattus norvegicus. In words: Antihypertensive activity in rat spontaneous hypertensive model assessed as diastolic arterial blood pressure at 20 mg/kg, po measured at 4 hrs by tail-cuff method (reference value: 141.4 +/- 7.11 mmHg). The data set is classed as functional, Artery.
Data set [13] concerns Rattus norvegicus. In words: Antihypertensive activity in rat spontaneous hypertensive model assessed as systolic arterial blood pressure at 20 mg/kg, po measured at 8 hrs by tail-cuff method (reference value: 174 +/- 12.1 mmHg). The data set is classed as functional, Artery.
Data set [14] concerns Rattus norvegicus. In words: Antihypertensive activity in rat spontaneous hypertensive model assessed as systolic arterial blood pressure at 20 mg/kg, po measured at 0.5 hrs by tail-cuff method (reference value: 178.5 +/- 10.13 mmHg). The data set is classed as functional, Artery.
Data set [15] concerns Rattus norvegicus. Briefly: Antihypertensive activity in rat spontaneous hypertensive model assessed as systolic arterial blood pressure at 20 mg/kg, po measured at 1 hr by tail-cuff method (reference value: 181.2 +/- 16.37 mmHg). The data set is classed as functional, Artery.
Data set [16] deals with Rattus norvegicus. Briefly: Toxicity in rat spontaneous hypertensive model assessed as heart rate at 20 mg/kg, po measured at 6 hrs by tail-cuff method (reference value: 405.1 +/- 24 bpm). The data set is classed as organism-based. More on the design: dose 20 mg/kg, route oral. As to conditions: in vivo.
The test system of data set [17] is Rattus norvegicus. In words: Antihypertensive activity in rat spontaneous hypertensive model assessed as mean arterial blood pressure at 20 mg/kg, po measured at 2 hrs by tail-cuff method (reference value: 157.41 +/- 9.62 mmHg). The format is functional, Artery.
Data set [18] deals with Rattus norvegicus. Briefly: Antihypertensive activity in rat spontaneous hypertensive model assessed as mean arterial blood pressure at 20 mg/kg, po measured at 6 hrs by tail-cuff method (reference value: 155.8 +/- 7.97 mmHg). The data set is classed as functional, Artery.
In data set [19] the test system is Rattus norvegicus. Briefly: Toxicity in rat spontaneous hypertensive model assessed as heart rate at 20 mg/kg, po measured at 2 hrs by tail-cuff method (reference value: 399.5 +/- 19.68 bpm). The format is organism-based. The arrangement: dose 20 mg/kg, route oral. As to conditions: in vivo.
The test system of data set [20] is Rattus norvegicus. Briefly: Antihypertensive activity in rat spontaneous hypertensive model assessed as diastolic arterial blood pressure at 20 mg/kg, po measured at 1 hr by tail-cuff method (reference value: 146.2 +/- 13.19 mmHg). The format is functional, Artery.
For data set [21], the system named is Rattus norvegicus. In words: Toxicity in rat spontaneous hypertensive model assessed as heart rate at 20 mg/kg, po measured at 0.5 hrs by tail-cuff method (reference value: 406.5 +/- 13.15 bpm). The arrangement: dose 20 mg/kg, route oral. The data set is classed as organism-based. As to conditions: in vivo.
The test system of data set [22] is Rattus norvegicus. In words: Antihypertensive activity in rat spontaneous hypertensive model assessed as mean arterial blood pressure at 20 mg/kg, po measured at 0.5 hrs by tail-cuff method (reference value: 156.2 +/- 7.21 mmHg). The data set is classed as functional, Artery.
The subject of data set [23] is Rattus norvegicus. In words: Antihypertensive activity in rat spontaneous hypertensive model assessed as diastolic arterial blood pressure at 20 mg/kg, po measured at 2 hrs by tail-cuff method (reference value: 142.9 +/- 18.07 mmHg). The data set is classed as functional, Artery.
In data set [24] the test system is Rattus norvegicus. Briefly: Antihypertensive activity in rat spontaneous hypertensive model assessed as diastolic arterial blood pressure at 20 mg/kg, po measured at 6 hrs by tail-cuff method (reference value: 141.2 +/- 7.34 mmHg). The format is functional, Artery.

For the molecule `CC(C)NCC(O)COc1cccc2ccccc12` (centres undefined) [PROPRANOLOL], the Activity with Rattus norvegicus [1] was 158.4 mmHg; in the data set with Rattus norvegicus [2], 127.2 mmHg; in the data set on Rattus norvegicus [3], 132.6 mmHg; in the data set with Rattus norvegicus [4], 339.9 bpm; with Rattus norvegicus [5], 116.9 mmHg; with Rattus norvegicus [6] it was 122.6 mmHg. The Activity with Rattus norvegicus [7] was 108.3 mmHg; in the data set on Rattus norvegicus [8] it was 161 mmHg; in the data set with Rattus norvegicus [9], 349.6 bpm; in the data set on Rattus norvegicus [10], 362.3 bpm; in the data set on Rattus norvegicus [11], 160.6 mmHg; in the data set on Rattus norvegicus [12], 88.3 mmHg. Also, the Activity in the data set with Rattus norvegicus [13] is 163.9 mmHg; with Rattus norvegicus [14] it was 168.7 mmHg; in the data set on Rattus norvegicus [15], 156.8 mmHg; in the data set on Rattus norvegicus [16] it was 360.1 bpm; with Rattus norvegicus [17], 116.8 mmHg; with Rattus norvegicus [18] it was 120.9 mmHg. Besides, the Activity is 350.6 bpm in the data set with Rattus norvegicus [19]; 105.5 mmHg in the data set with Rattus norvegicus [20]; 340 bpm with Rattus norvegicus [21]; 145 mmHg in the data set on Rattus norvegicus [22]; 94.1 mmHg with Rattus norvegicus [23]; 100.3 mmHg in the data set on Rattus norvegicus [24].
